Read-outs that look alike come from different tables or passages of the source.
How the values were obtained:
[1] = system: LN229; assay: LN229 intracranial model efficacy; format: in vivo; conditions: LN229 tumor-bearing mice, PTEN wild type
Description: We studied the efficacy of DS in 2 intracranial tumor models; the U87 glioma cell line and the GSC11 glioma initiating cell line are both PTEN mutant and GSC-11 is PIK3CA mutant cells. The median survival time of the U87 tumor-bearing control mice (i.e., those injected with methylcellulose only) was 30 days, whereas the median survival time of the U87 tumor-bearing mice orally treated with 6 mg/kg of DS was 46 days (Figure 4A; P=0.025). The median survival of the GSC11 tumor-bearing mice orally treated with 6 mg/kg of DS was 61 days (Figure 4B; P=0.014) compared with 47 days for the control-treated mice. The in vivo therapeutic efficacy of DS was assessed by plotting the Kaplan-Meier survival curves of the animals, and group data were compared using the log-rank test (Figure 4A and 4B). […] We also studied LN229 a PTEN wild type cell line to study the efficacy of DS in intracranial model.

[2] = target: mixed lineage kinase 1 (MLK1) (Homo sapiens, UniProt P80192); assay: kinase panel, direct measurement of substrate phosphorylation, MLK1; format: biochemical; conditions: panel of 227 kinases; test concentration not given
Chain of mixed lineage kinase 1 (MLK1) (P80192 whole entry): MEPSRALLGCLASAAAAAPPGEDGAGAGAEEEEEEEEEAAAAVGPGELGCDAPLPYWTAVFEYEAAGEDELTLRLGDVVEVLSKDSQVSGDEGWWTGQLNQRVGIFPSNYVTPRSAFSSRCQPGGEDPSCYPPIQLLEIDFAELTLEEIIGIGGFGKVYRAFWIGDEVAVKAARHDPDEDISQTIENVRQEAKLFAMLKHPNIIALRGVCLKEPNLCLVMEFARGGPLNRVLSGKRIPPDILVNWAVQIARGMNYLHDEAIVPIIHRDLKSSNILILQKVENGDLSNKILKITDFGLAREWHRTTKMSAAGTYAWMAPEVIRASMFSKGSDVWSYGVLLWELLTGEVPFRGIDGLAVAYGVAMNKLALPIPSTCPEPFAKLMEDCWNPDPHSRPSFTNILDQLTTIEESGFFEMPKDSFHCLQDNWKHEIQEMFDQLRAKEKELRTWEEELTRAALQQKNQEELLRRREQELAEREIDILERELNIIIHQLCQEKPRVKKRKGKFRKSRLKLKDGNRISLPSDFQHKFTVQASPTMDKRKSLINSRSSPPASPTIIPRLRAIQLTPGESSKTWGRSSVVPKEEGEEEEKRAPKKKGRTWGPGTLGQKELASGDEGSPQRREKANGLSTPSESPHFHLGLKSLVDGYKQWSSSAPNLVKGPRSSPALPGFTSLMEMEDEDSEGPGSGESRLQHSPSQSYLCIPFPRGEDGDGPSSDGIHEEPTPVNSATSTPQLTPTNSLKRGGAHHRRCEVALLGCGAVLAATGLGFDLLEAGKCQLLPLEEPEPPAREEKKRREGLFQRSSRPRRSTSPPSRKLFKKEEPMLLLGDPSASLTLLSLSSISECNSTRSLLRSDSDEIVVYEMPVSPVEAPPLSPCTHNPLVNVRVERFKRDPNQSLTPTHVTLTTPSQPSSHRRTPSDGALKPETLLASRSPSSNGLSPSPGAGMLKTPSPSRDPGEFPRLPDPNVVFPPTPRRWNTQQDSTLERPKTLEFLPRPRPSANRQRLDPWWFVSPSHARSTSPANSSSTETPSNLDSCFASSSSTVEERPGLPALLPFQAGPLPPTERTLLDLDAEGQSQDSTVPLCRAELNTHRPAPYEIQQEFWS
Description: (§1) DS7423 inhibits PI3K/mTOR activity likely binding to the ATP binding cleft of these enzymes and was tested against class I PI3K and other kinases using an HTRF assay format and direct measurement of substrate phosphorylation, respectively.

[3] = system: glioma cell lines and GICs; assay: CellTiter-Blue cell viability assay, 72 hours; format: cell-based; conditions: Homo sapiens
Description: To determine the cytotoxicity of DS in GBM cells and GICs in vitro, we used a colorimetric […] assay. […] To investigate the role of PI3K/PTEN, we expressed PTEN in PTEN-mutant U87 glioma cells.
A panel of GIC lines was treated with various concentrations of DS. Cells were treated with increasing concentrations of DS in triplicate wells for 72 hours, and cell viability was assessed by a CellTiter-Blue assay. The results shown are from a single experiment with three independent replicates. The graph depicts cell viability at 72 hours. Cell viability in the vehicle control was considered to be 100%.
Nine well characterized GBM cell lines and 22 patient-derived GIC lines (provided by Drs. Frederick. F. Lang and Erik. P. Sulman, Brain Tumor center, M. D. Anderson Cancer Center) with various P53, PIK3CA, and PTEN statuses were used for this study. GBM cells were maintained as monolayer cultures and GICs were cultured as GBM neurospheres in DMEM/F12 medium containing B27 supplement (Invitrogen, Grand Island, NY) and basic fibroblast growth factor, and epidermal growth factor (20 ng/ml each).
The antiproliferative effect of DS on cells growing in culture was determined using the CellTiter-Blue (Promega, Madison, WI) viability assay. […]

[4] = system: glioma cell lines U87 and U251; assay: cell viability with DS, TMZ and the combination; format: cell-based; conditions: Homo sapiens, U-251, TMZ 200 μM, DS 200 nM, alone or combined
Description: To investigate the ability of DS to modify the response of glioma cells to TMZ treatment, we evaluated the effects of TMZ (200 μM) alone, DS (200 nM) alone, and a combination of both TMZ and DS on the viability of the glioma cell lines U87 and U251 (Figure 5A).
The antiproliferative effect of DS on cells growing in culture was determined using the CellTiter-Blue (Promega, Madison, WI) viability assay. The mean drug concentration required to inhibit cell proliferation by 50% (IC50) compared with vehicle-treated controls was calculated using CalcuSyn Version 2.0 software (Great ShelfordCambridge, United Kingdom).

[5] = target: p110δ (Homo sapiens, UniProt O00329); assay: class I PI3K HTRF assay, p110δ; format: biochemical
Chain of p110δ (O00329 whole entry): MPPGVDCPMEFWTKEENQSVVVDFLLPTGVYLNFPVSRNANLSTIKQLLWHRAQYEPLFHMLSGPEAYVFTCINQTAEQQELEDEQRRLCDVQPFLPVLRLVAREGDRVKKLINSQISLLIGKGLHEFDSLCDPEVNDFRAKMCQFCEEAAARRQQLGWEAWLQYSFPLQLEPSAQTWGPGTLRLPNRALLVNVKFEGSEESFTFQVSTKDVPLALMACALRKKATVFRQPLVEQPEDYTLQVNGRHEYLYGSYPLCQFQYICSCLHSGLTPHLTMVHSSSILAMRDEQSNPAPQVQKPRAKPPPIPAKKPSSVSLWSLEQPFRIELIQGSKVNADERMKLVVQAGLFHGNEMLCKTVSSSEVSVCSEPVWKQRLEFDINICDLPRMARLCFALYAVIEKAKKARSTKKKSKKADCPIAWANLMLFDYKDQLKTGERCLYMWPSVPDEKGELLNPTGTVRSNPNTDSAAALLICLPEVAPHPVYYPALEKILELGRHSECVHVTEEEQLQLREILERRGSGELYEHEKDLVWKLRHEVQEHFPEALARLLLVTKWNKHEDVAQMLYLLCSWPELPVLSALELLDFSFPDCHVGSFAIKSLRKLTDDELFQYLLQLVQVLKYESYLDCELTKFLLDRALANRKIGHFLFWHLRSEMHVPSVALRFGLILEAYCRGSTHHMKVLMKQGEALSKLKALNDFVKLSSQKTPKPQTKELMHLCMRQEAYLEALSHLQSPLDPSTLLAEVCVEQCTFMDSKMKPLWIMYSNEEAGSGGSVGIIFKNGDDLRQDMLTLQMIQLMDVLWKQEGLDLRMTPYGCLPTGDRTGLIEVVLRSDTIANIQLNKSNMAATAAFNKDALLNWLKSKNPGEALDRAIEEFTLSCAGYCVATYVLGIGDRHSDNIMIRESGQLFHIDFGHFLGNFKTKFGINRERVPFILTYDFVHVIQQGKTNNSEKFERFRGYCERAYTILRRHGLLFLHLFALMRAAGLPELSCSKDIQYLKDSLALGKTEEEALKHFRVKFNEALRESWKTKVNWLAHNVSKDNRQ
Chain of p110δ (P27986 whole entry partner): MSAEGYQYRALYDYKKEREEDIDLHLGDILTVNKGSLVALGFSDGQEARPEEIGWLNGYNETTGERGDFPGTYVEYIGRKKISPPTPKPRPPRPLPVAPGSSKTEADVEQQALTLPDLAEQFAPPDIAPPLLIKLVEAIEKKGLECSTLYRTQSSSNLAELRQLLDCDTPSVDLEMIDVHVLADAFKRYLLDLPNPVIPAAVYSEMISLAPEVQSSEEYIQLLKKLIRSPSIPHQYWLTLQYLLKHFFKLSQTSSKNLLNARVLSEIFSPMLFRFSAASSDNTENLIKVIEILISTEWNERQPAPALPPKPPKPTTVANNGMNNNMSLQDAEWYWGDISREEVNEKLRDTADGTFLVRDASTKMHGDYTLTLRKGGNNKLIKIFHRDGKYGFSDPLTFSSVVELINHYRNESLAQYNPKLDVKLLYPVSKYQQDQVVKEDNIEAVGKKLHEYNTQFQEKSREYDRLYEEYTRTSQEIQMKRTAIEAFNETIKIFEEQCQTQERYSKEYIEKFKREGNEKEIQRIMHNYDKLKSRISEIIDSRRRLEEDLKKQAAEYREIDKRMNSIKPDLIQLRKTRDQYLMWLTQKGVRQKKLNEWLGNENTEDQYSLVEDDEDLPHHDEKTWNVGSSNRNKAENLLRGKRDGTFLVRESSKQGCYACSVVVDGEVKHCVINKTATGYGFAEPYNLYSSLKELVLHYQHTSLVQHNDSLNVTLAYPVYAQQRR
Description: as §1

[6] = system: GSC11 GICs; assay: GSC11 orthotopic intracranial xenograft efficacy; format: in vivo, nude mice; conditions: GSC11 tumor-bearing mice, 6 mg/kg oral; control 47 days; P=0.014
Excerpt: Figure 4 DS7423 suppressed tumor growth and prolonged survival in an orthotopic mouse xenograft model U87 glioma cells U87 and GSC11 GICs were used to generate orthotopic xenografts in mouse brains. Tumor-bearing mice received either vehicle or DS7423 at the indicated dose/schedules. Two mice were killed at the indicated time points (2 weeks and 4 weeks) after DS treatment. A. and B. Kaplan–Meier survival plots of tumor-bearing mice in vehicle or DS7423 treatment groups (n = 10). The log-rank method was used to test for a difference between groups. […] Bar, 100 μm.
6 to 8-week-old male nude mice were obtained from the MD Anderson breeding facility and used in accordance with the Animal Care and Use Guidelines of MD Anderson Cancer Center. In this study, 5 × 10^5 U87 (PTEN mutant) cells in DMEM/F12 serum-free media (5 μL) and GSC11 (PIK3CA mutant and PTEN mutant) were implanted intracranially into each mouse using a guide-screw system, as described previously. Four days after injection of the tumor cells, mice were randomized into 2 groups (10 animals per group). Mice in-group 1 was given 6 mg/kg DS7423 via oral gavage, and mice in-group 2 were given the vehicle (0.5% methyl cellulose) used for administration of DS (control). […] Mice were monitored daily and euthanized when they became moribund. […]

[7] = target: p110γ (Homo sapiens, UniProt P48736); assay: class I PI3K HTRF assay, p110γ; format: biochemical
Chain of p110γ (P48736 whole entry): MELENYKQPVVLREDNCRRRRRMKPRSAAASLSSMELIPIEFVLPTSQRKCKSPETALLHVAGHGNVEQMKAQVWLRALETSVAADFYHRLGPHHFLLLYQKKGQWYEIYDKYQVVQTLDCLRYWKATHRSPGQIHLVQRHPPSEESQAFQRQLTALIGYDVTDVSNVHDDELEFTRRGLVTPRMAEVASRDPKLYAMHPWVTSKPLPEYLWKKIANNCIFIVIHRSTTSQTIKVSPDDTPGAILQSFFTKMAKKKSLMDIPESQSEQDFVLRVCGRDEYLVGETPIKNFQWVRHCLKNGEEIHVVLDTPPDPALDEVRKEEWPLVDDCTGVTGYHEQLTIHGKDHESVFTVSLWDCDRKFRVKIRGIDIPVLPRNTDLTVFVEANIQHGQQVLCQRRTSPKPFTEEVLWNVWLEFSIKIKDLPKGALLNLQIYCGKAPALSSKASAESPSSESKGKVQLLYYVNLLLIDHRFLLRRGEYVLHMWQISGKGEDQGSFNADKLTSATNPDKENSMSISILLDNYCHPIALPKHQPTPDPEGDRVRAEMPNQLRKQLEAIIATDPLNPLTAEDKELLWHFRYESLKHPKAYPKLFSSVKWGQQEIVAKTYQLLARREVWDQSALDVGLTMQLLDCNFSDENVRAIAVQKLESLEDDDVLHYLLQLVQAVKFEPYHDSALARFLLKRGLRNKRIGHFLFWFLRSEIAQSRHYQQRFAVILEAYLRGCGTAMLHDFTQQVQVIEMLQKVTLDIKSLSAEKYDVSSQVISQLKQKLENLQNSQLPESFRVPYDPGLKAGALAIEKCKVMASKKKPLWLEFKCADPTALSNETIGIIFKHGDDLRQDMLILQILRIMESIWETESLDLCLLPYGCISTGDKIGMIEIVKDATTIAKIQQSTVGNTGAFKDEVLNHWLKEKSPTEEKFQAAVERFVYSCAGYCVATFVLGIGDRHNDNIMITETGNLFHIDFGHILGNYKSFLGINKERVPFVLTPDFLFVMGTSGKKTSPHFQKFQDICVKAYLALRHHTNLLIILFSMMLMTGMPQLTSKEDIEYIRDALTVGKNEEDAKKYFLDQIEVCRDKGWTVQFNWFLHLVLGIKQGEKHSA
Description: as §1

Question: `CC(=O)N1CCN(c2nc3c(N4CCOCC4)nc(-c4cnc(N)nc4)nc3n2CC(F)(F)F)C[C@H]1C` [DS, 1-{(2R)-4-[2-(2-Aminopyrimidin-5-yl)-6-(morpholin-4-yl)-9-(2,2,2-trifluoroethyl)-9H-purin-8-yl]-2-methylpiperazin-1-yl}ethan-1-one] was tested. Which “effect on median survival” value [1] did it give?
Answer: no effect on median survival

Question: What about the “inhibition of MLK1” value [2] of the same molecule?
Answer: greater than 50%

Question: And the IC50 ([3]; Glioma cell, GBM cells and GICs, 72 hours exposure, read-out: half maximal inhibitory concentration range of cells considered sensitive)?
Answer: 150 to 265 nM

Question: And the IC50 ([3]; 9 glioma cell lines and 22 GIC lines, 72 hours, read-out: mean 50% inhibitory concentration, growth of glioma tumor cell lines and GICs)?
Answer: < 250 nM

Question: What about the viability at 0.2 µM [4] of the same molecule?
Answer: 63%

Question: And the IC50 [5]?
Answer: 262 nM

Question: What about the median survival [6] of the same molecule?
Answer: 61 days

Question: And the IC50 [7]?
Answer: 249 nM

— PMC5400620, “Preclinical therapeutic efficacy of a novel blood-brain barrier-penetrant dual PI3K/mTOR inhibitor with preferential response in PI3K/PTEN mutant glioma” (Oncotarget, 2017)
